Assay results reported in patent publication US8772499B2, “TRPV3 modulators” (AbbVie Inc., priority 2011, dated 2014).
Where two headings read alike, the source gives them in different places.

Experiments:
human TRPV3 = biological target: T1, human TRPV3 (Homo sapiens, UniProt Q8NET8); experiment: In vitro antagonism of recombinant human TRPV3 activation (FLIPR Tetra calcium assay); assay type: cell-based; conditions: HEK293 cells stably expressing human TRPV3, agonist 2-APB at 80 μM
T1 construct: expressed in transfected cells
T1 sequence (Q8NET8 1-790): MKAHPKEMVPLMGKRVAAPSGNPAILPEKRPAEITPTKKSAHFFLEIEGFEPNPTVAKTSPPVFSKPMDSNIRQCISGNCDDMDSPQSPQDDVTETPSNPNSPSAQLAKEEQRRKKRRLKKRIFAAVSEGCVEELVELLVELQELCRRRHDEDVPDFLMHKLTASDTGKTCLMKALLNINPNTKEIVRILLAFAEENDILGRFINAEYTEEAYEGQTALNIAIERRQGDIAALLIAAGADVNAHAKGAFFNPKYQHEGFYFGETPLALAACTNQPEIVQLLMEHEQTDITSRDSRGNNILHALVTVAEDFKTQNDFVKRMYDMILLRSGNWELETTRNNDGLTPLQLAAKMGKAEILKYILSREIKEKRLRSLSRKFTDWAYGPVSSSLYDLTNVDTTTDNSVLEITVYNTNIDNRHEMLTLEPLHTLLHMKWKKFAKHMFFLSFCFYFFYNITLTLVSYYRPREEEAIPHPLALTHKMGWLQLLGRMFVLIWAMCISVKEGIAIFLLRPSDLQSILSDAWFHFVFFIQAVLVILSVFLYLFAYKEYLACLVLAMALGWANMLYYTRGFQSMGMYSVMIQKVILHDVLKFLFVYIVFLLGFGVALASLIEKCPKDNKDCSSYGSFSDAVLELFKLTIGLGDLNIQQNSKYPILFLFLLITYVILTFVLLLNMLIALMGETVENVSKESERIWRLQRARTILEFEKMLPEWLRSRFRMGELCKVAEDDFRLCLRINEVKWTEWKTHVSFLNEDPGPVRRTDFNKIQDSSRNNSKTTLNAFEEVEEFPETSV
Summary of the method: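 HEK293 cells stably expressing human TRPV3, loaded with Calcium-4 dye for 90–120 min, received compound in DPBS, then 80 μM 2-APB (EC80) 3 min later. Max-minus-min fluorescence expressed as % of 2-APB response without antagonist; IC50 values mostly averages of n≥2 runs.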

[1] = In vitro rat microsomal stability assay; assay type: in vitro ADME, rat (Sprague-Dawley); conditions: for RAT MICROSOMAL STABILITY (% REMAINING AFTER 30 MINUTES): Sprague-Dawley, microsomes, 0.5 h, 0.5 μM, pH 7.4
Summary of the method: (§1)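 Metabolic stability measured in Sprague-Dawley rat or human liver microsomes at 37 °C. Reactions supplemented with NADPH.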

[2] = In vitro human microsomal stability assay; assay type: in vitro ADME; conditions: for HUMAN MICROSOMAL STABILITY (% REMAINING AFTER 30 MINUTES): microsomes, 0.5 h, 0.5 μM, pH 7.4
Summary of the method: as §1

[3] = actual measured value shown parenthetically, in most cases average of at least two runs, read-out: IC50
[4] = reported range, read-out: IC50 (range class)

Structure (SMILES)	IC50 (human TRPV3; [3])	IC50 (human TRPV3; [4])	RAT MICROSOMAL STABILITY (% REMAINING AFTER 30 MINUTES) [1]	HUMAN MICROSOMAL STABILITY (% REMAINING AFTER 30 MINUTES) [2]	RAT […] (% REMAINING AFTER 30 MINUTES) ([1]; rat liver microsomes (Sprague-Dawley), 0.5 μM substrate, 0.25 mg/mL microsomal protein, pH 7.4, 37° C., NADPH, 30 minutes)	HUMAN […] (% REMAINING AFTER 30 MINUTES) ([2]; human liver microsomes, 0.5 μM substrate, 0.25 mg/mL microsomal protein, pH 7.4, 37° C., NADPH, 30 minutes)
OC(C1CCc2cccnc21)C1(c2cccc(OC(F)(F)F)c2)CCC1 (stereo not drawn) [Example 190, (syn)-6,7-dihydro-5H-cyclopenta[b]pyridin-7-yl{1-[3-(trifluoromethoxy)-phenyl]cyclobutyl}methanol]	> 20000 nM	> 20000 nM	<0.01%	3.7%	–	–
OC(C1CCCc2cccnc21)C1(c2ccc(Cl)c(Cl)c2)CCC1 (single isomer, unassigned) [Example 181, (anti)-[1-(3,4-dichlorophenyl)cyclobutyl][5,6,7,8-tetrahydroquinolin-8-yl]-methanol]	1980 nM	–	<0.01%	<0.01%	–	–
ON=C1CC(c2ccc(OC(F)(F)F)cc2)([C@H](O)c2ccccn2)C1 (stereo partly drawn) [Example 248, (S)-{3-(hydroxyimino)-1-[4-(trifluoromethoxy)phenyl]cyclobutyl}(pyridin-2-yl)methanol]	1170 nM	–	29%	70%	–	–
OC1CC(c2ccc(OC(F)(F)F)cc2)(C(O)c2ccccn2)C1 (single isomer, unassigned) [Example 131]	820 nM	1100 to 5000 nM	50%	>85%	–	–
CC(c1ccc(F)cc1)C1(C(O)c2ccccn2)CCC1 (centres unmarked) [Example 46, {1-[1-(4-fluorophenyl)ethyl]cyclobutyl}(pyridin-2-yl)methanol]	13700 nM	–	0.23%	11%	–	–
Nc1cccnc1C(O)C1(c2cccc(C(F)(F)F)c2)CCC1 (centres unmarked) [Example 120, (3-aminopyridin-2-yl) {1-[3-(trifluoromethyl)phenyl]cyclobutyl}methanol]	> 20000 nM	> 20000 nM	<0.01%	1.6%	–	–
OC1CC(c2ccc(Cl)c(Cl)c2)(C(O)c2ccccn2)C1 (single isomer, unassigned) [Example 247]	4310 nM	–	>85%	62%	–	–
CC(C)(C)OC(=O)N1CCC(C2(C(O)c3ccccn3)CCC2)CC1 (centres unmarked) [Example 279, tert-butyl 4-{1-[hydroxy(pyridin-2-yl)methyl]cyclobutyl}piperidine-1-carboxylate]	7500 nM	–	<0.01%	22%	–	–
OC(CC1(c2cccc(OC(F)(F)F)c2)CCC1)c1ccccn1 (centres unmarked) [Example 77, 1-(pyridin-2-yl)-2-{1-[3-(trifluoromethoxy)phenyl]cyclobutyl}ethanol]	760 nM	–	0.94%	11%	–	–
OC(c1ccccn1)C1(c2cccc(F)c2)CCCO1 (single isomer, unassigned) [Example 100, (anti)-[2-(3-fluorophenyl)tetrahydrofuran-2-yl](pyridin-2-yl)methanol]	830 nM	–	2.9%	26%	–	–
OC(C1CCc2cccnc21)C1(c2ccc(F)c(F)c2)CCC1 (stereo not drawn) [Example 172, (syn)-[1-(3,4-difluorophenyl)cyclobutyl][6,7-dihydro-5H-cyclopenta[b]-pyridin-7-yl]methanol]	> 20000 nM	> 20000 nM	<0.01%	2.4%	–	–
O[C@H](c1ccccn1)[C@@]1(c2ccc(Cl)c(Cl)c2)CCO1 [Example 135, (R)-[(2S)-2-(3,4-dichlorophenyl)oxetan-2-yl](pyridin-2-yl)methanol]	1010 nM	–	3.4%	33%	–	–
O[C@@H](c1ccccn1)[C@]1(c2cc(C(F)(F)F)ccn2)C[C@H](O)C1 (relative stereo) [Example 290, cis-3-[(R)-hydroxy(pyridin-2-yl)methyl]-3-[4-(trifluoromethyl)pyridin-2-yl]cyclobutanol]	–	> 20000 nM	–	–	71%	>85%
OC(c1ccccn1)C1(c2nc3ccccc3s2)CCC1 (centres unmarked) [Example 266, [1-(1,3-benzothiazol-2-yl)cyclobutyl](pyridin-2-yl)methanol]	2310 nM	–	0.14%	46%	–	–
N[C@@H]1CCC[C@H]1[C@@H](O)C1(c2cccc(C(F)(F)F)c2)CCC1 [Example 227, (R)-[(1R,2R)-2-aminocyclopentyl]{1-[3-(trifluoromethyl)phenyl]-cyclobutyl}methanol]	500 nM	–	42%	>85%	–	–
OC(c1ccccn1)C1(c2ccc(Cl)c(Cl)c2)CCCO1 (single isomer, unassigned) [Example 99, (syn)-[2-(3,4-dichlorophenyl)tetrahydrofuran-2-yl](pyridin-2-yl)methanol]	1240 nM	–	0.17%	30%	–	–
O[C@H](c1ccccn1)C1(c2cc(C(F)(F)F)ccn2)CCC1 [Example 123, (S)-pyridin-2-yl{1-[4-(trifluoromethyl)pyridin-2-yl]cyclobutyl}methanol]	390 nM	–	11%	21%	–	–
OC(c1ccccn1)C1(c2ccc(C(F)(F)F)c(F)c2)CCC1 (centres unmarked) [Example 17]	1100 nM	–	13%	21%	–	–
O=C1CC(c2ccc(F)c(Cl)c2)([C@H](O)c2ccccn2)C1 (single isomer, unassigned) [Example 268]	2130 nM	–	82%	66%	–	–
OC(c1ccccn1)C1(c2ccc(Cl)c(C(F)(F)F)c2)CC(F)(F)C1 (centres unmarked) [Example 138, {1-[4-chloro-3-(trifluoromethyl)phenyl]-3,3-difluorocyclobutyl}(pyridin-2-yl)methanol]	830 nM	–	18%	41%	–	–
CC(C)(C)OC(=O)N1CCC(c2ccc(OC(F)(F)F)cc2)(C(O)c2ccccn2)CC1 (centres unmarked) [Example 157, tert-butyl 4-[hydroxy(pyridin-2-yl)methyl]-4-[4-(trifluoromethoxy)phenyl]-piperidine-1-carboxylate]	> 20000 nM	> 20000 nM	0.93%	28%	–	–
Cc1ccccc1C1(C(O)c2ccccn2)CCC1 (centres unmarked) [Example 7, [1-(2-methylphenyl)cyclobutyl](pyridin-2-yl)methanol]	17500 nM	–	0.32%	0.15%	–	–
